≈ marks a conversion by molar mass, not a printed value.
Tests used:
Triticum aestivum = assay: Field trial, phytotoxicity (damage) on winter wheat; conditions: TRZAW (winter wheat, crop damage), post-emergence, 31 DAT
Method: (§1) For the post emergence treatment, the plants were first grown up to the 2 leaf stage (BBCH 12). Here, the herbicidal compositions were suspended or emulsified in water as distribution medium and sprayed using finely distributing nozzels.
Cinmethylin was used in the solo application as an emulsion concentrate with an active ingredient concentration of 750 g/l.
The mixture of cinmethylin and picolinafen as an emulsifiable concentrate was prepared from cinmethylin as an emulsifiable concentrate (EC) and picolinafen as a water dispersable granule (WG) having an active ingredient concentration of 500 g/l and 50 g/l, respectively.
(§2) The herbicidal activity for the individual herbicidal compositions (solo and mixture applications) was assessed 31 days after treatment (DAT).
(§3) The evaluation for the damage on winter wheat and undesired weeds caused by the tested compositions was carried out using a scale from 0 to 100%, compared to the untreated control plants. Here, 0 means no damage and 100 means complete destruction of the plants.

Matricaria inodora = assay: Field trial, post-emergence herbicidal activity; format: in vivo; conditions: MATIN, 31 DAT
Method: (§4) Winter wheat was seeded in different soils ranging from sandy loam to clay loam soil containing 2.1-5.5% of organic matter.
as §1, §2, §3

Alopecurus myosuroides = assay: Field trial, post-emergence herbicidal activity; format: in vivo; conditions: ALOMY, 31 DAT
Method: as §4, §1, §2, §3

Lamium amplexicaule = assay: Field trial, post-emergence herbicidal activity; format: in vivo; conditions: LAMAM, 31 DAT
Method: as §4, §1, §2, §3

Raphanus raphanistrum = assay: Field trial, post-emergence herbicidal activity; format: in vivo; conditions: RAPRA, 31 DAT
Method: as §4, §1, §2, §3

Capsella bursa-pastoris = assay: Field trial, post-emergence herbicidal activity; format: in vivo; conditions: CAPBP, 31 DAT
Method: as §4, §1, §2, §3

[1] = at 20° C.; cited from earlier work

SMILES | herbicidal activity (Triticum aestivum; use rate 50 g ai/ha) | herbicidal activity (Triticum aestivum; use rate 100 g ai/ha) | herbicidal activity (Matricaria inodora; use rate 50 g ai/ha) | herbicidal activity (Alopecurus myosuroides; use rate 50 g ai/ha) | herbicidal activity (Lamium amplexicaule; use rate 50 g ai/ha) | herbicidal activity (Raphanus raphanistrum; use rate 50 g ai/ha) | herbicidal activity (Capsella bursa-pastoris; use rate 50 g ai/ha) | herbicidal activity (Triticum aestivum; use rate 500 g ai/ha) | herbicidal activity (Triticum aestivum; use rate 1000 g ai/ha) | herbicidal activity (Matricaria inodora; use rate 500 g ai/ha) | solubility in water [1] | herbicidal activity (Alopecurus myosuroides; use rate 500 g ai/ha) | herbicidal activity (Lamium amplexicaule; use rate 500 g ai/ha) | herbicidal activity (Raphanus raphanistrum; use rate 500 g ai/ha) | herbicidal activity (Capsella bursa-pastoris; use rate 500 g ai/ha)
O=C(Nc1ccc(F)cc1)c1cccc(Oc2cccc(C(F)(F)F)c2)n1 [picolinafen (WG), picolinafen] | 0% | 0% | 69% | 0% | 94% | 98% | 96% | – | – | – | – | – | – | – | –
Cc1ccccc1CO[C@@H]1C[C@@]2(C(C)C)CC[C@]1(C)O2 (racemic) [cinmethylin, (±)-2-exo-(2-methylbenzyloxy)-1-methyl-4-isopropyl-7-oxabicyclo[2.2.1]heptane] | – | – | – | – | – | – | – | 0% | 0% | 62% | 63 µg/mL (≈ 230 µM) | 100% | 53% | 10% | 65%

— patent publication US11019816B2, “Composition comprising cinmethylin-containing microparticles and a further herbicide” (BASF Agro B.V., priority 2017, dated 2021)
